# How the values were obtained:
# [1] = tested on: Hippocampal slices from AS mice; assay: High frequency stimulation LTP (fEPSP slope) in area CA1 of hippocampal slices; format: cell-based, mouse; conditions: for LTP deficit after high frequency stimulation: AS mice hippocampal slices, MBG 0.5 μM 20 min before, during and 20 min after tetanization, vs vehicle
# Description: Electrophysiology: Hippocampal slices were prepared from wild-type and AS model mice as previously described (Kaphzan et al., 2012; Kaphzan et al., 2013). LTP was induced in area CA1 with high frequency stimulation (HFS) by delivering two 100 Hz trains of HFS with an intertrain interval of 20 sec. The initial slope of the field excitatory postsynaptic potential (fEPSP) for each experiment was expressed as the ratio to the average baseline response prior to delivery of HFS.
# (§1) Drug handling: Marinobufagenin was kept in stock solution (1 mg/10 ml) in 0.5% DMSO and was freshly diluted to the required concentration 0.042 mg/mL by saline prior to the experiment. At this stock concentration a volume of 100 μL for 16 days in a rate of 0.25 μL/hour correlated to approximately 10 μg/kg/day for a mouse of 25 grams. The exact concentration was calculated for each mouse according to its body weight. As a vehicle 1:200 stock solution of DMSO in water (the maximal concentration of DMSO matched to the maximal dose of MBG, i.e. 10 μg/kg/day) was used. For delivery via osmotic pumps only mice that weigh more than 20 g were used. For LTP studies, marinobufagenin was kept at 100 mM stock solution in DMSO and was freshly dissolved in 1:100,000 carboxygenated artificial cerebrospinal fluid to the final concentration of 1 μM. For chronic injections Alzet osmotic pumps filled with marinobufagenin were used as described (Elkareh et al., 2007; Fedorova et al., 2009; Kennedy et al., 2006; Liu et al., 2012; Yoshika et al., 2007).
# Hippocampal slices from WT and AS mice were stimulated with a single train of high frequency stimulation (1 sec 100 Hz-indicated by an arrow). Some of the AS slices were treated with either vehicle or MBG 0.5 μM 20 min before, during and 20 min after tetanization. WT vehicle: mice n=3, slices n=6; AS vehicle: mice n=2, slices n=4; AS MBG: mice n=2, slices n=4. P<0.05 for interaction of time and treatment in 2-way RM-ANOVA. Sample traces 1-baseline, 2-20 min after HFS.
# AS model mice [2] = assay: Morris water maze; format: in vivo, mouse; conditions: chronic MBG infusion
# Description: as §1
# Morris water maze: MWM experiments were performed as previously described (Kaphzan et al., 2013). […] The animals' trajectories, escape latencies, number of previous platform position crossing, time spent in each quadrant, and swim speed were recorded with a computerized video-tracking system (Noldus EthoVision).
# CA1 pyramidal cells = assay: Whole cell recordings of resting membrane potential of CA1 pyramidal cells in hippocampal slices; format: cell-based; conditions: MBG 10 μM, 10 min incubation; AS mouse vs WT littermate; P=0.07
# Description: The effect of a1-NaKA inhibition with MBG 10 μM on the resting membrane potential was tested (FIG. 2). Hippocampal slices were incubated for 10 min with MBG 10 μM. Whole cell recordings of CA1 pyramidal cells show a larger effect on the resting membrane potential of AS mouse compared to a WT littermate. WT 1 mouse, cells n=4. AS: 1 mouse cells n=5. P=0.07 for the interaction in 2 way RM-ANOVA.
# a1-NaKA = target: T1, a1-NaKA (Mus musculus, UniProt Q8VDN2); assay: Inhibition of a1-NaKA; conditions: 0.5 μM MBG
# T1 construct: Hippocampal slices from WT and AS mice were stimulated; from tissue; host or cells: mouse hippocampal slices (WT and Angelman syndrome model mice)
# AS model mice [3] = assay: Contextual fear conditioning; format: in vivo, mouse; conditions: IP infusion 10 μg/kg/day by osmotic pump, started 2 weeks before conditioning, tested 24 hours after training
# Description: as §1
# Contextual fear conditioning: Mice were placed into a standard conditioning chamber and given a two-sec scrambled foot shock (0.75 mA) twice, two minutes and four minutes after session onset. […] The occurrence of freezing was measured every 10 seconds throughout training. […] The occurrence of freezing was measured every 10 sec throughout testing. […]
smiles,measurement,setting,value
"C[C@]12CC[C@H](O)C[C@@]1(O)CC[C@@H]1[C@@H]2CC[C@]2(C)[C@@H](c3ccc(=O)oc3)C[C@H]3O[C@]132 [MBG, 3-beta,5-dihydroxy-14,15-beta-epoxy-5-beta-bufa-20,22-dienolide]",HFS-LTP impairment,[1]; AS hippocampal slices incubated with MBG 1 μM,rescue of the impaired LTP phenotype
same,LTP deficit after high frequency stimulation,[1],induced a recovery of LTP deficit
same,LTP deficit after high frequency stimulation,[1]; listed as marinobufagenin,correction of long-term potentiation defects
same,baseline synaptic transmission,[1]; hippocampal slices incubated with MBG 1 μM,no effect on baseline synaptic transmission
same,baseline synaptic transmission,"[1]; hippocampal slices, MBG 0.5 μM",did not affect baseline synaptic transmission
same,visuospatial memory in the Morris water maze,AS model mice [2],impairment is corrected
same,effect on resting membrane potential,CA1 pyramidal cells,larger effect in AS mice than in wild-type littermates
same,Inhibition of a1-NaKA,a1-NaKA,partial and mild
same,contextual fear memory,AS model mice [3],corrects impaired contextual fear memory

# — patent US11571433B2, “Methods for treating memory impairment and cognitive dysfunction” (CARMEL HAIFA […] CORPORATION LTD., priority 2018, dated 2023)
